We go through 2 compounds from article PMC5980705 (Pediatric blood & cancer, 2018).

The structures appear in SMILES notation.

Series [1] can be described thus: Pharmacokinetic studies of crizotinib and dasatinib in patients. The series is classed as in vivo, human.
The subject of series [2] is BCRP. Particulars: cited from earlier work.
For series [3] the following is noted: cited from earlier work.
Series [4] has as its system p-glycoprotein. Conditions: cited from earlier work.
For series [5] the following is noted: in the combination of dasatinib and crizotinib, administered once daily, children.
In series [6] the test system is ERK (p-ERK/total ERK) in peripheral-blood mononuclear cells. Briefly: Total and phosphorylated ERK in PBMC before and 3 hours after dasatinib. The series is classed as in vivo, human. Conditions: after dosing of dasatinib, paired samples.

What is called Tmax is the time from dosing to the highest level. Broadly, the half-life is how long it takes for the measured level to halve. A high value points to slow loss. Consider `Cc1nc(Nc2ncc(C(=O)Nc3c(C)cccc3Cl)s2)cc(N2CCN(CCO)CC2)n1` [Dasatinib], for which, in series [1] (human, in vivo), the Tmax amounted to 2.1 h and the half-life was 4.4 h. In addition, in series [1] (human, in vivo, 50 mg/m2), the AUC0→t is recorded as 593.8 (388.1 to 1,521.1) ng/mL/hr and the Cmax was 120 ng/mL. Moreover, in series [1] (human, in vivo, 65 mg/m2), the AUC0→t is 863.9 (721.9 to 1,006) ng/mL/hr and the Cmax amounted to 210 ng/mL. Also, the apparent oral clearance in series [1] (human, in vivo, po) is on record as 1,328 mL/min/m^2. Further, the “substrate of BCRP” value in series [2] was “substrate of p-glycoprotein and BCRP”. In series [3], the CNS penetration entry is given as “more limited than initially recognized”. For the same compound, in series [4], the substrate of p-glycoprotein result is listed as “substrate of p-glycoprotein”. The “maximum tolerated dose (MTD)” value in series [5] was found to be 50 mg/m^2. Moreover, the “change in ratio of p-ERK/total ERK in PBMC” value in series [6] is reported as “No statistically significant changes”.

Take `C[C@@H](Oc1cc(-c2cnn(C3CCNCC3)c2)cnc1N)c1c(Cl)ccc(F)c1Cl` [Crizotinib]: the AUC0→t is recorded as 5,326.3 (2,068.3 to 12,182.9) ng/mL/hr in series [1] (dose 215 mg/m^2, day 1, 8 patients, t=∞, median (range)) and 3,118.9 (1,693.8 to 4,278.5) ng/mL/hr in series [1] (dose 215 mg/m^2, day 14, 4 patients, t=24 hours, median (range)). The Tmax in series [1] (human, in vivo) came out at 4.1 h. The Cmax is 155.5 (55.8 to 324.4) ng/mL in series [1] (human, in vivo, 165 mg/m2) and 156 ng/mL in series [1] (human, in vivo, 165 mg/m2, Cmax). For the same compound, the half-life was 13.1 h in series [1] (human, in vivo, elimination half-life, crizotinib day 1 of therapy, 25 patients, median, range 9.8 to 34.7) and 12.8 h in series [1] (human, in vivo, elimination half-life, crizotinib day 14 of therapy, 19 patients, median, range 8.0 to 36.5). Further, the CNS penetration entry in series [3] is “minimal and probably inadequate for the treatment of primary CNS cancers”. In addition, the “maximum tolerated dose (MTD)” value in series [5] amounted to 215 mg/m^2.
